Holding throughout (test): Kinase selectivity, DiscoverX scanMAX Kinase assay panel (% control)
What all share (type): binding

Test [1] concerns the target T1, kinases of the scanMAX Kinase assay panel (Homo sapiens, UniProt O15530).
T1 construct: purchased DiscoverX Co. (contract measurement) scanMAX Kinase assay panel
T1 sequence (O15530 1-556): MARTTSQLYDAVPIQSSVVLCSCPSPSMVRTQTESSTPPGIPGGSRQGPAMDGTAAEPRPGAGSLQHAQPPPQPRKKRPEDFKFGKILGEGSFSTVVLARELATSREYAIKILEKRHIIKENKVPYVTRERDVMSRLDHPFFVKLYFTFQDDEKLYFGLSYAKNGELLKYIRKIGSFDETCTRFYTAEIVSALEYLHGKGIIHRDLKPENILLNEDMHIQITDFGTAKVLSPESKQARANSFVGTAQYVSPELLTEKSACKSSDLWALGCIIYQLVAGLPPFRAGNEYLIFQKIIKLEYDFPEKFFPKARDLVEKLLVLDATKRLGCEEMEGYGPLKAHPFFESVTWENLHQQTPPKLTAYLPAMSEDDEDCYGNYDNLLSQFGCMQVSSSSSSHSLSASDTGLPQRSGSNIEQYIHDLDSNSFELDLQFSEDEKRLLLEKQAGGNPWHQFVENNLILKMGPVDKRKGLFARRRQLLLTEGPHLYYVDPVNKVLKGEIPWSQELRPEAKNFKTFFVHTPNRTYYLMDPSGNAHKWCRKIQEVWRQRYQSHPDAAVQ
The note with it: PDPK1; 1 uM. In short, it runs like this:
(§1)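 Percent of control computed as (compound − positive control)/(negative control − positive control) × 100, DMSO defining 100% and positive control 0%. Each panel kinase exposed to 1 uM compound; values under 35% taken to mean the compound acts on that kinase.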

Test [2] deals with T2, kinases of the scanMAX Kinase assay panel (Homo sapiens, UniProt Q15208).
T2 construct: purchased DiscoverX Co. (contract measurement) scanMAX Kinase assay panel
T2 sequence (Q15208 whole entry): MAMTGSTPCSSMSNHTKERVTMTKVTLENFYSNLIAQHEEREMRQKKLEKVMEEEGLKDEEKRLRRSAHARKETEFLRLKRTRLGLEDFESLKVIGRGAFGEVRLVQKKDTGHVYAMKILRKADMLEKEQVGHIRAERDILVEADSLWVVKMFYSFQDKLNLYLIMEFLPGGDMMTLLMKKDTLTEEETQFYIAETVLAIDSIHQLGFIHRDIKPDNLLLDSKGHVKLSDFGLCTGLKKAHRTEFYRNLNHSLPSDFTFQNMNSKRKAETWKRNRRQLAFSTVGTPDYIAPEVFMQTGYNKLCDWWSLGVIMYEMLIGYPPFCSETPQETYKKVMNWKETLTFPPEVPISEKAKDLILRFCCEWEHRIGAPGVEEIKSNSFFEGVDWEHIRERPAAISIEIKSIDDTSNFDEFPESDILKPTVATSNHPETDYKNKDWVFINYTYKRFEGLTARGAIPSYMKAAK
The note with it: NDR1; 1 uM. In short, it runs like this: as §1

Test [3] has as its target T3, kinases of the scanMAX Kinase assay panel (Homo sapiens, UniProt Q9Y3S1).
T3 construct: purchased DiscoverX Co. (contract measurement) scanMAX Kinase assay panel
The note with it: kinase WNK2; 1 uM in DMSO. In outline:
as §1

The target in test [4] is T4, kinases of the scanMAX Kinase assay panel (Homo sapiens, UniProt Q13131).
T4 construct: purchased DiscoverX Co. (contract measurement) scanMAX Kinase assay panel
T4 sequence (Q13131 whole entry): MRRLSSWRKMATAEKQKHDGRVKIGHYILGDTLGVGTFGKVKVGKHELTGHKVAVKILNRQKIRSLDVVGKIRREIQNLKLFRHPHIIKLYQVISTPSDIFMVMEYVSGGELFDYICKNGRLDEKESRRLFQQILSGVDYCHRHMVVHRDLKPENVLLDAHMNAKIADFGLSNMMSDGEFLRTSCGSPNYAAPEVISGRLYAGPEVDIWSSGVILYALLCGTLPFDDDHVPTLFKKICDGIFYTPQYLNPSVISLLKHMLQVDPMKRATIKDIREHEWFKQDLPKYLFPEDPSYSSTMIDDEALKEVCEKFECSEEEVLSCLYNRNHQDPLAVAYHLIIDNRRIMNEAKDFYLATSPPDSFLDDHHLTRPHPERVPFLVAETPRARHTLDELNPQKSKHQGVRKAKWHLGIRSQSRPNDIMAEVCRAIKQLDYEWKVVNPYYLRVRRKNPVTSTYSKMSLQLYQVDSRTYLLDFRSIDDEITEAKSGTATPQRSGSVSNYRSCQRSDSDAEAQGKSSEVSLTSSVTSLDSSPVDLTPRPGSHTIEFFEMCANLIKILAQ
The conditions noted are these: AMPK-alpha1; 1 uM. In outline: as §1

Test [5] concerns the target T5, kinases of the scanMAX Kinase assay panel (Homo sapiens, UniProt P53667).
T5 construct: purchased DiscoverX Co. (contract measurement) scanMAX Kinase assay panel
The conditions noted are these: LIMK1; 1 uM. In outline: as §1

For test [6], the target named is T6, kinases of the scanMAX Kinase assay panel (Homo sapiens, UniProt Q99683).
T6 construct: purchased DiscoverX Co. (contract measurement) scanMAX Kinase assay panel
T6 sequence (Q99683 1-1374): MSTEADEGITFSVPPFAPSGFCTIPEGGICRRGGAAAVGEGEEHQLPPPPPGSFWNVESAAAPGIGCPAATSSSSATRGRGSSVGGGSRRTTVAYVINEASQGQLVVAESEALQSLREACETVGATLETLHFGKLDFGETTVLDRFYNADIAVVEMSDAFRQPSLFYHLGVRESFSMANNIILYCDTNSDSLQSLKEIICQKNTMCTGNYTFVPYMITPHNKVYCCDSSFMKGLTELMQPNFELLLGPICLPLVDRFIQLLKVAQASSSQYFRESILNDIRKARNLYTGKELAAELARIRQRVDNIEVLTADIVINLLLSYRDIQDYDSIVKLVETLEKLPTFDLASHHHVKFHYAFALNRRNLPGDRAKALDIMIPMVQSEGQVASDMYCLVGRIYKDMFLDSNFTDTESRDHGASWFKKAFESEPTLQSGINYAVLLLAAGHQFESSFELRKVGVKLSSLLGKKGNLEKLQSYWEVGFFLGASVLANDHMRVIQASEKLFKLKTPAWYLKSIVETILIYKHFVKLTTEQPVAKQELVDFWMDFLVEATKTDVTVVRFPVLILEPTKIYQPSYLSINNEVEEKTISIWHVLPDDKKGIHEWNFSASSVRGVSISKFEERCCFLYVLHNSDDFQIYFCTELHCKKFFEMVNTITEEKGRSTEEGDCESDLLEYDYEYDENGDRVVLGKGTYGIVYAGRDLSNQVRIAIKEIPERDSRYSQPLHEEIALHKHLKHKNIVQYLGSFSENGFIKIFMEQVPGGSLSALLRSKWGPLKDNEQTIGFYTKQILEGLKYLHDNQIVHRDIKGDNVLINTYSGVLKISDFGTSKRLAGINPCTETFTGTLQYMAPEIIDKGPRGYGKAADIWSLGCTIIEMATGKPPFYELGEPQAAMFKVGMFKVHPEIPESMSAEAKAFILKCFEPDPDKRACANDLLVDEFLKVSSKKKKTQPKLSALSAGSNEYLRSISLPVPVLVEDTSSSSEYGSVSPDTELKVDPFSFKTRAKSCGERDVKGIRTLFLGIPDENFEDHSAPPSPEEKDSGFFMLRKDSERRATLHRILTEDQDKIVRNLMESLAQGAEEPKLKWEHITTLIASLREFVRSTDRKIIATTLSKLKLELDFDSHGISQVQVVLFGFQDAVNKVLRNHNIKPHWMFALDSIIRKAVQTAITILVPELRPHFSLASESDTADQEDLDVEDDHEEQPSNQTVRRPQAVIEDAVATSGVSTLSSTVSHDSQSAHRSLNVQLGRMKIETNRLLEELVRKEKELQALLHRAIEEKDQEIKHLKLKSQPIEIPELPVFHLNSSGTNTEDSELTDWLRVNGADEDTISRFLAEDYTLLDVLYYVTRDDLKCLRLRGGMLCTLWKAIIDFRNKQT
The note with it: ASK1; 1 uM. In short, it runs like this:
as §1

T5 sequence (P53667 whole entry): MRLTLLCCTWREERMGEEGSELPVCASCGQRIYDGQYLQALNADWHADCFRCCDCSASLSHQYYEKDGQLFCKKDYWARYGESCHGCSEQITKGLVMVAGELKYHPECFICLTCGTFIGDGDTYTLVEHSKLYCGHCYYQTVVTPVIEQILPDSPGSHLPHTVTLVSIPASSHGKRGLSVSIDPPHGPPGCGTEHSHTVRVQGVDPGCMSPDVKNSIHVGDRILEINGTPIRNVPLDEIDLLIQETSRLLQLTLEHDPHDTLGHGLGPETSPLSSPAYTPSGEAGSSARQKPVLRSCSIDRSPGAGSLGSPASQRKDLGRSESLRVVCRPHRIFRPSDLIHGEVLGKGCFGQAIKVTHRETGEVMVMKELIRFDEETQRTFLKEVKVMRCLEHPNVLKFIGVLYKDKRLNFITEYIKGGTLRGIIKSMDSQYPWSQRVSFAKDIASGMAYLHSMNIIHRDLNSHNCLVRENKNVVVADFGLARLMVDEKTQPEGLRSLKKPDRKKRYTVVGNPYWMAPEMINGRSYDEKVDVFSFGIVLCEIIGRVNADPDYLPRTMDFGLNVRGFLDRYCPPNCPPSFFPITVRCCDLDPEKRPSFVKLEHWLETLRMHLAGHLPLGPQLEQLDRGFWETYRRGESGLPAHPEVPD
T3 sequence (Q9Y3S1 whole entry): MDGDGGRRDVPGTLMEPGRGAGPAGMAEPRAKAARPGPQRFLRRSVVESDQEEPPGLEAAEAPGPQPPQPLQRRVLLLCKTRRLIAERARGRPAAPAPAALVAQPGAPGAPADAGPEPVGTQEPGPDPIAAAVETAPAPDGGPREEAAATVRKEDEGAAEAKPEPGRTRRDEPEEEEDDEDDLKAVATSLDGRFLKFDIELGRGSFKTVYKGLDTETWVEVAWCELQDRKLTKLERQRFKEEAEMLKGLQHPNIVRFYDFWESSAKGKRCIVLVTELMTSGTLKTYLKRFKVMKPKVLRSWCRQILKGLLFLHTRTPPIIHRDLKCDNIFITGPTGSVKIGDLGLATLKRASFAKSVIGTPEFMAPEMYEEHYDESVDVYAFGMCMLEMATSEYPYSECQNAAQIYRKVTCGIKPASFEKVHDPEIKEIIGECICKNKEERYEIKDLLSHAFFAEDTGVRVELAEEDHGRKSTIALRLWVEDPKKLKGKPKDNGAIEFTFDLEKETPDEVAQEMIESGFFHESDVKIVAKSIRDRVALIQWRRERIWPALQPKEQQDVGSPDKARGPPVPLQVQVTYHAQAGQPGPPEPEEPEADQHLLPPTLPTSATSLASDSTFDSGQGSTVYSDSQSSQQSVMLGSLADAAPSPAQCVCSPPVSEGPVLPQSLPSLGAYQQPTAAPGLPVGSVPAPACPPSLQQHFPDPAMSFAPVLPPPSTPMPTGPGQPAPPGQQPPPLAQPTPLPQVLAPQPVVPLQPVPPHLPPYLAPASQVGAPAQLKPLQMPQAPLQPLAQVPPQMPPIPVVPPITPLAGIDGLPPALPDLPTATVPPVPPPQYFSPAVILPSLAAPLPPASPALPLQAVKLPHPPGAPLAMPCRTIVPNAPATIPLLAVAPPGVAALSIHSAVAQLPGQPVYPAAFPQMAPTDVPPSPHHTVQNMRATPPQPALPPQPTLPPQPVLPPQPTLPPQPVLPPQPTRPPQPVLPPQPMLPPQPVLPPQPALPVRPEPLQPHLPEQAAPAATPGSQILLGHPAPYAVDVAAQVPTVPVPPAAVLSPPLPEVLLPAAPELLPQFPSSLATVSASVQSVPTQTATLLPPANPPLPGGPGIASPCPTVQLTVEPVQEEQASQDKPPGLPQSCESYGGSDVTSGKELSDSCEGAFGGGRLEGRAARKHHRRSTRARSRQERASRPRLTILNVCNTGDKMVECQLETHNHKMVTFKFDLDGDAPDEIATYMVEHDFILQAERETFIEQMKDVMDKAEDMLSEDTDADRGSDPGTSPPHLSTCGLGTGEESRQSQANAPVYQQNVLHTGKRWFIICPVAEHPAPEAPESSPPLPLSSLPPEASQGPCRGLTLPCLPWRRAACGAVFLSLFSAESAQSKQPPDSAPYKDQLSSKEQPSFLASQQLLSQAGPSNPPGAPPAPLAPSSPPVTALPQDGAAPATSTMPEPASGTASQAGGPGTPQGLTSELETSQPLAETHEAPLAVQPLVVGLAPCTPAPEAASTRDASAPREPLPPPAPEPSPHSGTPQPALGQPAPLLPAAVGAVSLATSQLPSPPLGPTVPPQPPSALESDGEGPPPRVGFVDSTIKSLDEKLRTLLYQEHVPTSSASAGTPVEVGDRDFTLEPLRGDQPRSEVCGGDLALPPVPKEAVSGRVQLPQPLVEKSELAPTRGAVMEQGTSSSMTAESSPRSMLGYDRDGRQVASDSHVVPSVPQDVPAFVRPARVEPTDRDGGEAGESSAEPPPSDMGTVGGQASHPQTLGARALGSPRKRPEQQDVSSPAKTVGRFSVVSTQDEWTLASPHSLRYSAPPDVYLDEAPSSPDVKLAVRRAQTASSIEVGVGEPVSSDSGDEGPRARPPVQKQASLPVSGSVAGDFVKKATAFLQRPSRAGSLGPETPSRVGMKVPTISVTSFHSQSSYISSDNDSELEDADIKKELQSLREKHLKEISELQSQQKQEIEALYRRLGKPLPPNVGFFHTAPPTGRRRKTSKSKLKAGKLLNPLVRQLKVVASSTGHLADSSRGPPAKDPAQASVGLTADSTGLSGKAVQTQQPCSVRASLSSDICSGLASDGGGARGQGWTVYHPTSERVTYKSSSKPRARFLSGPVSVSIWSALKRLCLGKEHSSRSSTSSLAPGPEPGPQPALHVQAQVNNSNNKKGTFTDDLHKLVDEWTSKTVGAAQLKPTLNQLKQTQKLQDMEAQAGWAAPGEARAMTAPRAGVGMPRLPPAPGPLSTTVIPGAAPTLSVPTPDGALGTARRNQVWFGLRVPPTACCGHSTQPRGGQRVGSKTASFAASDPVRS

`CNc1nc(Nc2ccc(C(=O)N3CCOCC3)cc2OC)nc2[nH]cc(C#N)c12` [Example 1, 2-((2-methoxy-4-(morpholine-4-carbonyl)phenyl)amino)-4-(methylamino)-7H-pyrrolo[2,3-d]pyrimidine-5-carbonitrile]: the remaining binding at 1 µM in test [1] is 81%; in test [2] it was 84%; in test [3], 52%; in test [4], 87%; in test [5] it was 100%; in test [6], 57%.
Regarding `CC1(Nc2nc(Nc3cnn([C@H]4CCN(C5COC5)C[C@@H]4F)c3Cl)nc3[nH]cc(C#N)c23)CC1` [Example 52, 2-((5-chloro-1-((3S,4S)-3-fluoro-1-(oxetane-3-yl)piperidine-4-yl)-1H-pyrazole-4-yl)amino)((1-methylcyclopropyl)amino)-7H-pyrrolo[2,3-d]pyrimidine-5-carbonitrile], the remaining binding at 1 µM in test [1] stood at 70%; in test [2], 42%; in test [3], 56%; in test [4] it was 4.3%; in test [5], 98%; in test [6], 1.8%.
Take `CCNc1nc(Nc2ccc(C(=O)N3CCC(N4CCOCC4)CC3)cc2OC)nc2[nH]cc(C(F)(F)F)c12` [Example 104, (4-((4-(ethylamino)-5-(trifluoromethyl)-7H-pyrrolo[2,3-d]pyrimidine-2-yl)amino)-3-methoxyphenyl)(4-morpholinopiperidine-1-yl)methanone]: the remaining binding at 1 µM amounted to 100% in test [1]; 94% in test [2]; 100% in test [3]; 100% in test [4]; 100% in test [5]; 82% in test [6].

The record behind these values is patent US11208412B2 (DAEGU-GYEONGBUK MEDICAL INNOVATION FOUNDATION, priority 2017, dated 2021).
